Assay results from patent US8858997B2, “Formulations and methods for lyophilization and lyophilates provided thereby” (Remedy Pharmaceuticals, Inc., priority 2007, dated 2014).
≈ marks a conversion by molar mass, not a printed value. Where two headings read alike, the source gives them in different places. Blank lines part the entries; values can stand above or below the molecule they belong to.

Tests used:
[1] = Solubility studies using micronized glibenclamide: unbuffered 2% sucrose and water; type: physicochemical; conditions: for GLB mg/ml (glibenclamide in solution): 2% sucrose in water; for solubility: aqueous buffer, thermodynamic from solid, water without bulking agent
Procedure: Micronized glibenclamide in 2% sucrose (as a proxy for glucose, fructose, mannose, galactose, mannitol, sorbitol, lactose, trehalose, and other sugars, including mono-saccharides, di-saccharides) in water was prepared, as recorded in the left-hand column of Table 4. In addition, micronized glibenclamide was prepared in water without a bulking agent (see Table 4, right column). These were unbuffered solutions, so that 1) pH was adjusted to the target value, then 2) glibenclamide was added (which lowered the pH) and then 3) pH was re-adjusted up to the target. This was done iteratively until the pH was stable.

[2] = Solubility studies using micronized glibenclamide: unbuffered saline; type: physicochemical; conditions: thermodynamic from solid
Source text: This was done iteratively until pH was stable. “GLB” indicates glibenclamide.

[3] = Solubility of glibenclamide in buffered water solutions (Britton Robinson); type: physicochemical
Source text: Buffered water solutions (Britton Robinson buffers) were used to determine the amounts of glibenclamide soluble in buffered solutions without added salt or added sugar.

[4] = all measured pH values from pH 4 to pH 9; Britton-Robinson buffer; cited from earlier work
[5] = 0.1 M, pH 10 phosphate-buffered aqueous solution (300 mOsm/L); cited from earlier work
[6] = cited from earlier work
[7] = Stated physicochemical properties (pKa, water and ethanol solubility); conditions: 109 mg/L vs. 4 mg/L

GLB mg/ml (glibenclamide in solution) ([1]; pH 7.45): 0.051 mg/mL
GLB mg/ml (glibenclamide in solution) ([1]; pH 7.50): 0.099 mg/mL
GLB mg/ml (glibenclamide in solution) ([1]; pH 8.24): 0.310 mg/mL
GLB mg/ml (glibenclamide in solution) ([1]; pH 8.66): 1.069 mg/mL
GLB mg/ml (glibenclamide in solution) ([1]; pH 9.16): 2.608 mg/mL
GLB mg/ml (glibenclamide in solution) ([1]; pH 9.53): 3.060 mg/mL
GLB mg/ml (glibenclamide in solution) ([1]; pH 9.74): 4.103 mg/mL
GLB mg/ml (glibenclamide in solution) ([1]; pH 11.23): 3.811 mg/mL
GLB mg/ml (glibenclamide in solution) ([1]; pH 11.30): 3.416 mg/mL
GLB mg/ml (glibenclamide in solution) ([1]; pH 11.99): 1.904 mg/mL
solubility ([1]; pH 7.36, read-out: GLB mg/ml (glibenclamide in solution)): 0.019 mg/mL (≈ 38.5 µM)
solubility ([1]; pH 7.55, read-out: GLB mg/ml (glibenclamide in solution)): 0.096 mg/mL (≈ 194 µM)
solubility ([1]; pH 8.65, read-out: GLB mg/ml (glibenclamide in solution)): 0.799 mg/mL (≈ 1620 µM)
solubility ([1]; pH 8.73, read-out: GLB mg/ml (glibenclamide in solution)): 0.087 mg/mL (≈ 176 µM)
solubility ([1]; pH 9.13, read-out: GLB mg/ml (glibenclamide in solution)): 0.205 mg/mL (≈ 415 µM)
solubility ([1]; pH 9.57, read-out: GLB mg/ml (glibenclamide in solution)): 3.97 mg/mL (≈ 8030 µM)
solubility ([1]; pH 10.28, read-out: GLB mg/ml (glibenclamide in solution)): 4.87 mg/mL (≈ 9860 µM)
solubility ([1]; pH 11.19, read-out: GLB mg/ml (glibenclamide in solution)): 4.67 mg/mL (≈ 9460 µM)
solubility ([1]; pH 11.44, read-out: GLB mg/ml (glibenclamide in solution)): 4.84 mg/mL (≈ 9800 µM)
solubility ([1]; pH 12.27, read-out: GLB mg/ml (glibenclamide in solution)): 2.51 mg/mL (≈ 5090 µM)
solubility ([2]; 0.9% saline in water, pH 8.07, saline or isotonic, Saline 0.9%, pH 8.070, read-out: GLB mg/ml (glibenclamide in solution)): 0.024 mg/mL (≈ 48.6 µM)
solubility ([2]; 0.9% saline in water, pH 8.44, saline or isotonic, Saline 0.9%, pH 8.440, read-out: GLB mg/ml (glibenclamide in solution)): 0.109 mg/mL (≈ 221 µM)
solubility ([2]; 0.9% saline in water, pH 9.18, saline or isotonic, Saline 0.9%, pH 9.180, read-out: GLB mg/ml (glibenclamide in solution)): 0.435 mg/mL (≈ 881 µM)
solubility ([2]; 0.9% saline in water, pH 9.92, saline or isotonic, Saline 0.9%, pH 9.920, read-out: GLB mg/ml (glibenclamide in solution)): 0.42 mg/mL (≈ 850 µM)
solubility ([2]; 0.9% saline in water, pH 10.48, saline or isotonic, Saline 0.9%, pH 10.480, read-out: GLB mg/ml (glibenclamide in solution)): 0.456 mg/mL (≈ 923 µM)
solubility ([2]; 0.9% saline in water, pH 11.06, saline or isotonic, Saline 0.9%, pH 11.060, read-out: GLB mg/ml (glibenclamide in solution)): 0.445 mg/mL (≈ 901 µM)
solubility ([2]; 0.9% saline in water, pH 11.61, saline or isotonic, Saline 0.9%, pH 11.610, read-out: GLB mg/ml (glibenclamide in solution)): 0.538 mg/mL (≈ 1090 µM)
solubility ([2]; 0.9% saline in water, pH 12.07, saline or isotonic, Saline 0.9%, pH 12.070, read-out: GLB mg/ml (glibenclamide in solution)): 0.476 mg/mL (≈ 964 µM)
solubility ([2]; 2% saline in water, pH 12.1, saline or isotonic, Saline 2%, pH 12.10, read-out: GLB mg/ml (glibenclamide in solution)): 0.216 mg/mL (≈ 437 µM)
solubility ([2]; 2% saline in water, saline or isotonic, Saline 2%, pH 7.24, read-out: GLB mg/ml (glibenclamide in solution)): 0.012 mg/mL (≈ 24.3 µM)
solubility ([2]; 2% saline in water, saline or isotonic, Saline 2%, pH 7.97, read-out: GLB mg/ml (glibenclamide in solution)): 0.028 mg/mL (≈ 56.7 µM)
solubility ([2]; 2% saline in water, saline or isotonic, Saline 2%, pH 8.34, read-out: GLB mg/ml (glibenclamide in solution)): 0.087 mg/mL (≈ 176 µM)
solubility ([2]; 2% saline in water, saline or isotonic, Saline 2%, pH 8.89, read-out: GLB mg/ml (glibenclamide in solution)): 0.214 mg/mL (≈ 433 µM)
solubility ([2]; 2% saline in water, saline or isotonic, Saline 2%, pH 8.94, read-out: GLB mg/ml (glibenclamide in solution)): 0.233 mg/mL (≈ 472 µM)
solubility ([2]; 2% saline in water, saline or isotonic, Saline 2%, pH 9.49, read-out: GLB mg/ml (glibenclamide in solution)): 0.205 mg/mL (≈ 415 µM)
solubility ([2]; 2% saline in water, saline or isotonic, Saline 2%, pH 10.31, read-out: GLB mg/ml (glibenclamide in solution)): 0.215 mg/mL (≈ 435 µM)
solubility ([2]; 2% saline in water, saline or isotonic, Saline 2%, pH 10.98, read-out: GLB mg/ml (glibenclamide in solution)): 0.192 mg/mL (≈ 389 µM)
solubility ([2]; 2% saline in water, saline or isotonic, Saline 2%, pH 11.49, read-out: GLB mg/ml (glibenclamide in solution)): 0.194 mg/mL (≈ 393 µM)
solubility ([3]; Britton Robinson buffer in water, aqueous buffer, pH 9.000, read-out: GLB mg/mL (glibenclamide in solution)): 0.14 mg/mL (≈ 283 µM)
solubility ([3]; Britton Robinson buffer in water, pH 9.7, aqueous buffer, pH 9.700, read-out: GLB mg/mL (glibenclamide in solution)): 0.85 mg/mL (≈ 1720 µM)
solubility ([3]; Britton Robinson buffer, aqueous buffer, pH 5.3, read-out: GLB mg/mL (glibenclamide in solution)): 0.01 mg/mL (≈ 20.2 µM)
solubility ([3]; Britton Robinson buffer, aqueous buffer, pH 8.000, read-out: GLB mg/mL (glibenclamide in solution)): 0.02 mg/mL (≈ 40.5 µM)
solubility ([3]; Britton Robinson buffer, aqueous buffer, pH 8.3, read-out: GLB mg/mL (glibenclamide in solution)): 0.02 mg/mL (≈ 40.5 µM)
solubility ([3]; Britton Robinson buffer, pH 6.2, aqueous buffer, pH 6.200, read-out: GLB mg/mL (glibenclamide in solution)): 0.01 mg/mL (≈ 20.2 µM)
solubility ([3]; Britton Robinson buffer, pH 7.1, aqueous buffer, pH 7.100, read-out: GLB mg/mL (glibenclamide in solution)): 0.01 mg/mL (≈ 20.2 µM)
solubility ([3]; Britton Robinson buffer, pH 10.1, aqueous buffer, pH 10.100, read-out: GLB mg/mL (glibenclamide in solution)): 2.35 mg/mL (≈ 4760 µM)
Compound: COc1ccc(Cl)cc1C(=O)NCCc1ccc(S(=O)(=O)NC(=O)NC2CCCCC2)cc1 [Glibenclamide, 5-chloro-N-[2-[4-(cyclohexylcarbamoylsulfamoyl)phenyl]ethyl]-2-methoxy-benzamide]
solubility [4]: below 1 mg/mL
solubility [5]: 500 µg/mL (≈ 1010 µM)
ethanol solubility [6]: 5000 µg/mL

times more soluble in water than glibenclamide [7]: 24 times
Compound: CCCCNC(=O)NS(=O)(=O)c1ccc(C)cc1 [Tolbutamide]
water solubility [6]: 109 µg/mL (≈ 403 µM)

Compound: CCOc1cc(CC(=O)N[C@@H](CC(C)C)c2ccccc2N2CCCCC2)ccc1C(=O)O [Repaglinide]
water solubility ([6]; pH 9): 600 µg/mL (≈ 1330 µM)
